Reference: patent US9994587B2, “HIV protease inhibitors” (priority 2014, dated 2018)

Biological target: T1, wildtype HIV-1 protease (Human immunodeficiency virus type 1 group M subtype B, UniProt P04585)
T1 construct: preincubated with the HIV-1 protease (wild type) enzyme in assay buffer; made in house; host or cells: Escherichia coli
Assay: Assay for inhibition of microbial expressed HIV protease (Pepcleav)
Assay type: biochemical
Conditions: wild type HIV-1 protease 20 pM, peptide substrate 400 micromolar, pH 5.5; mean of at least two independent experiments
Summary of the method: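 E. coli-expressed enzyme preincubated with inhibitor 30 min at room temperature in 50 mM sodium acetate pH 5.5, 100 mM NaCl, 0.1% BSA, then 400 micromolar peptide substrate added with 20 picomolar protease (final), 1 h at 30° C. Product quantified by LC-MS/MS peak area after formic acid/indinavir quench.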

SMILES	IC50 [nM]
COC(=O)N[C@H](C(=O)Nc1ncccc1CC[C@@H]1CNC[C@@H](COc2ccc(C#N)cc2)O1)C(c1ccccc1)c1ccccc1 [Example 85, N-[3-(2-{(2R,6S)-6-[(4-cyanophenoxy)methyl]morpholin-2-yl}ethyl)pyridin-2-yl]-Nα-(methoxycarbonyl)-β-phenyl-L-phenylalaninamide]	88
COC(=O)N[C@H](C(=O)Nc1c(CC[C@@H]2CNC[C@@H](COc3ccc(C#N)cc3)O2)cc[nH]c1=O)C(c1ccccc1)c1ccccc1 [Example 86, N-[4-(2-{(2R,6S)-6-[(4-cyanophenoxy)methyl]morpholin-2-yl}ethyl)-2-oxo-1,2-dihydropyridin-3-yl]-Nα-(methoxycarbonyl)-β-phenyl-L-phenylalaninamide]	4.1
COC(=O)N[C@H](C(=O)Nc1c(CC[C@@H]2CNC[C@@H](CSc3ccc(Cl)cc3)O2)cc[nH]c1=O)C(c1ccccc1)c1ccccc1 [Example 87, N-(4-{2-[(2R,6S)-6-{[(4-chlorophenyl)sulfanyl]methyl}morpholin-2-yl]ethyl}-2-oxo-1,2-dihydropyridin-3-yl)-Nα-(methoxycarbonyl)-β-phenyl-L-phenylalaninamide]	0.05
N[C@H](C(=O)Nc1c(CC[C@@H]2CNC[C@@H](CSc3ccc(Cl)cc3)O2)cc[nH]c1=O)C(c1ccccc1)c1ccccc1 [Example 88, N-(4-{2-[(2R,6S)-6-{[(4-chlorophenyl)sulfanyl]methyl}morpholin-2-yl]ethyl}-2-oxo-1,2-dihydropyridin-3-yl)-β-phenyl-L-phenylalaninamide]	0.04
O=C(Nc1c(CC[C@@H]2CNC[C@@H](CSc3ccc(Cl)cc3)O2)cc[nH]c1=O)[C@@H](NCC(F)(F)F)C(c1ccccc1)c1ccccc1 [Example 89, N-(4-{2-[(2R,6S)-6-{[(4-chlorophenyl)sulfanyl]methyl}morpholin-2-yl]ethyl}-2-oxo-1,2-dihydropyridin-3-yl)-β-phenyl-Nα-(2,2,2-trifluoroethyl)-L-phenylalaninamide]	12.3
COC(=O)N[C@H](C(=O)Nn1c(CC[C@@H]2CNC[C@@H](COc3ccc(C#N)cc3)O2)cccc1=O)C(c1ccccc1)c1ccccc1 [Example 90, N-[6-(2-{(2R,6S)-6-[(4-cyanophenoxy)methyl]morpholin-2-yl}ethyl)-2-oxopyridin-1 (2H)-yl]-Nα-(methoxycarbonyl)-β-phenyl-L-phenylalaninamide]	53.3
N#Cc1cccc(SC[C@@H]2CNC[C@@H](CCc3c(F)cncc3NC(=O)[C@@H](N)C(c3ccc(F)cc3)c3ccc(F)cc3)O2)c1 [Example 102, N-(4-{2-[(2R,6S)-6-{[(3-cyanophenyl)sulfanyl]methyl}morpholin-2-yl]ethyl}-5-fluoropyridin-3-yl)-4-fluoro-β-(4-fluorophenyl)-L-phenylalaninamide]	0.47
N[C@H](C(=O)Nc1cncc(F)c1CC[C@@H]1CNC[C@@H](CSc2ccc(Cl)cc2)O1)C(c1ccc(F)cc1)c1ccc(F)cc1 [Example 104, (S)-2-amino-N-(4-(2-((2R,6S)-6-(((4-chlorophenyl)thio)methyl)morpholin-2-yl)ethyl)-5-fluoropyridin-3-yl)-3,3-bis(4-fluorophenyl)propanamide]	0.28
N[C@H](C(=O)Nc1cncc(F)c1CC[C@@H]1CNC[C@@H](COC(=O)N2CCOCC2)O1)C(c1ccc(F)cc1)c1ccc(F)cc1 [Example 105, {(2S,6R)-6-[2-(3-fluoro-5-{[4-fluoro-β-(4-fluorophenyl)-L-phenylalanyl]amino}pyridin-4-yl)ethyl]morpholin-2-yl}methyl morpholine-4-carboxylate]	29
COC(=O)N[C@H](C(=O)NCCCC1CNC[C@@H](CCc2ccc(Cl)cc2)O1)C(c1ccccc1)c1ccccc1 (stereo partly drawn) [Example 107, N-(3-{(6R)-6-[2-(4-chlorophenyl)ethyl]morpholin-2-yl}propyl)-Nα-(methoxycarbonyl)-β-phenyl-L-phenylalaninamide]	1000
COC(=O)N[C@H](C(=O)Nc1ccccc1CC[C@@H]1CNC[C@@H](COc2ccc(-n3ccnc3)cc2)O1)C(c1ccccc1)c1ccccc1 [Example 108, N-(2-{2-[(2R,6S)-6-{[4-(1H-imidazol-1-yl)phenoxy]methyl}morpholin-2-yl]ethyl}phenyl)-Nα-(methoxycarbonyl)-β-phenyl-L-phenylalaninamide]	37
COC(=O)N[C@H](C(=O)Nc1ccccc1CC[C@H]1CNC[C@@H](CS(=O)(=O)c2ccc(Cl)cc2)O1)C(c1ccccc1)c1ccccc1 [Example 109, N-(2-{2-[(2S,6S)-6-{[(4-chlorophenyl)sulfonyl]methyl}morpholin-2-yl]ethyl}phenyl)-Nα-(methoxycarbonyl)-β-phenyl-L-phenylalaninamide]	770
C#C[C@@H]1CNC[C@@H](CCc2ccccc2NC(=O)[C@@H](NC(=O)OC)C(c2ccccc2)c2ccccc2)O1 [Example 111, N-(2-{2-[(2R,6R)-6-ethynylmorpholin-2-yl]ethyl}phenyl)-Nα-(methoxycarbonyl)-β-phenyl-L-phenylalaninamide]	580
COC(=O)N[C@H](C(=O)Nc1ccccc1CC[C@@H]1CNC[C@@H](c2nc3cc(C)c(C)cc3[nH]2)O1)C(c1ccccc1)c1ccccc1 [Example 112, N-(2-{2-[(2R,6S)-6-(5,6-dimethyl-1H-benzimidazol-2-yl)morpholin-2-yl]ethyl}phenyl)-Nα-(methoxycarbonyl)-β-phenyl-L-phenylalaninamide]	850
COC(=O)N[C@H](C(=O)Nc1cccnc1CC[C@@H]1CNC[C@@H](COc2cccc(C#N)c2)O1)C(c1ccccc1)c1ccccc1 [Example 113, N-[2-(2-{(2R,6S)-6-[(3-cyanophenoxy)methyl]morpholin-2-yl}ethyl)pyridin-3-yl]-Nα-(methoxycarbonyl)-β-phenyl-L-phenylalaninamide]	510
COC(=O)N[C@H](C(=O)Nc1n[nH]cc1CC[C@@H]1CNC[C@@H](COc2ccc(S(C)(=O)=O)cc2)O1)C(c1ccccc1)c1ccccc1 [Example 115, Nα-(methoxycarbonyl)-N-(4-{2-[(2R,6S)-6-{[4-(methylsulfonyl)phenoxy]methyl}morpholin-2-yl]ethyl}-1H-pyrazol-3-yl)-β-phenyl-L-phenylalaninamide]	370
COC(=O)N[C@H](C(=O)Nc1ccccc1C[C@H]1CNC[C@@H](COc2ccc(C#N)cc2)O1)C(c1ccccc1)c1ccccc1 [Example 117, N-[2-({(2S,6S)-6-[(4-cyanophenoxy)methyl]morpholin-2-yl}methyl)phenyl]-Nα-(methoxycarbonyl)-β-phenyl-L-phenylalaninamide]	180
N[C@H](C(=O)Nc1cncc(F)c1CC[C@@H]1CNC[C@@H](CO)O1)C(c1ccc(F)cc1)c1ccc(F)cc1 [Example 120, 4-fluoro-N-(5-fluoro-4-{2-[(2R,6S)-6-(hydroxymethyl)morpholin-2-yl]ethyl}pyridin-3-yl)-β-(4-fluorophenyl)-L-phenylalaninamide]	380
N[C@H](C(=O)Nc1cccc(F)c1CC[C@@H]1CNC[C@@H](CSc2ccc(Cl)cc2)O1)C(c1ccc(F)cc1)c1ccc(F)cc1 [Example 121, N-(2-{2-[(2R,6S)-6-{[(4-chlorophenyl)sulfanyl]methyl}morpholin-2-yl]ethyl}-3-fluorophenyl)-4-fluoro-β-(4-fluorophenyl)-L-phenylalaninamide]	5.2
N[C@@H](C(=O)Nc1cncc(F)c1CC[C@@H]1CNC[C@@H](CSc2ccc(Cl)cc2)O1)C(c1ccc(F)cc1)c1ccc(F)cc1 [Example 122, N-(4-{2-[(2R,6S)-6-{[(4-chlorophenyl)sulfanyl]methyl}morpholin-2-yl]ethyl}-5-fluoropyridin-3-yl)-4-fluoro-β-(4-fluorophenyl)-D-phenylalaninamide]	9
N[C@H](C(=O)Nc1cncc(F)c1CC[C@@H]1CNC[C@@H](COC(=O)NCC(F)(F)F)O1)C(c1ccc(F)cc1)c1ccc(F)cc1 [Example 123, 4-fluoro-β-(4-fluorophenyl)-N-(5-fluoro-4-{2-[(2R,6S)-6-({[(2,2,2-trifluoroethyl)carbamoyl]oxy}methyl)morpholin-2-yl]ethyl}pyridin-3-yl)-L-phenylalaninamide]	16
NC(=O)OC[C@@H]1CNC[C@@H](CCc2c(F)cncc2NC(=O)[C@@H](N)C(c2ccc(F)cc2)c2ccc(F)cc2)O1 [Example 124, N-[4-(2-{(2R,6S)-6-[(carbamoyloxy)methyl]morpholin-2-yl}ethyl)-5-fluoropyridin-3-yl]-4-fluoro-β-(4-fluorophenyl)-L-phenylalaninamide]	120
N[C@H](C(=O)Nc1cncc(F)c1CC[C@@H]1CNC[C@@H](COC(=O)NCc2ccc(F)cc2)O1)C(c1ccc(F)cc1)c1ccc(F)cc1 [Example 125, 4-fluoro-N-(5-fluoro-4-{2-[(2R,6S)-6-({[(4-fluorobenzyl)carbamoyl]oxy}methyl)morpholin-2-yl]ethyl}pyridin-3-yl)-β-(4-fluorophenyl)-L-phenylalaninamide]	15
N[C@H](C(=O)Nc1cncc(F)c1CC[C@@H]1CNC[C@@H](COC(=O)NCCc2ccccc2)O1)C(c1ccc(F)cc1)c1ccc(F)cc1 [Example 130, 4-fluoro-β-(4-fluorophenyl)-N-(5-fluoro-4-{2-[(2R,6S)-6-({[(2-phenylethyl)carbamoyl]oxy}methyl)morpholin-2-yl]ethyl}pyridin-3-yl)-L-phenylalaninamide]	8.8
N[C@H](C(=O)Nc1cncc(F)c1CC[C@@H]1CNCC2(CCCC2)O1)C(c1ccccc1)c1ccccc1 [Example 131, N-(5-fluoro-4-{2-[(7R)-6-oxa-9-azaspiro[4.5]dec-7-yl]ethyl}pyridin-3-yl)-β-phenyl-L-phenylalaninamide]	300
CC(C)COC[C@@H]1CNC[C@@H](CCc2c(F)cncc2NC(=O)[C@@H](N)C(c2ccc(F)cc2)c2ccc(F)cc2)O1 [Example 132, 4-fluoro-N-[5-fluoro-4-(2-{(2R,6S)-6-[(2-methylpropoxy)methyl]morpholin-2-yl}ethyl)pyridin-3-yl]-β-(4-fluorophenyl)-L-phenylalaninamide]	430
